Experimental data reported in EP4682156A1, “LINKER AND DRUG CONJUGATE USING SAME, AND ANTIBODY-DRUG CONJUGATE AND USE THEREOF” (Shanghai Affinity Biopharmaceutical Co., Ltd., priority 2023, dated 2024).
Read-outs that look alike come from different tables or passages of the source. *1 amine or outer side, *2 acyl side, *3 side chain or, on linkers, in order; H or OH if unused. Where a SMILES comes first, the peptide text is derived from it. [ ]: non-standard residue; d: D form. The star is where a group is joined. Doxorubicin(3'-N) = COc1cccc2c1C(=O)c1c(O)c3c(c(O)c1C2=O)C[C@@](O)(C(=O)CO)C[C@@H]3O[C@H]1C[C@H](N*)[C@H](O)[C@H](C)O1; Exatecan = CC[C@@]1(O)C(=O)OCc2c1cc1n(c2=O)Cc2c-1nc1cc(F)c(C)c3c1c2[C@@H](N*)CC3; X8 = CCc1c2c(nc3ccc(O)cc13)-c1cc3c(c(=O)n1C2)COC(=O)[C@@]3(CC)OCN*; X5 = CCc1c2c(nc3ccc(OCN*)cc13)-c1cc3c(c(=O)n1C2)COC(=O)[C@]3(O)CC; X1 = O=C(CCCCCOC1O[C@H](CO)[C@H](O)[C@H](O)[C@H]1N[*:1])[*:2]; X9 = Nc1ccn([C@@H]2O[C@H](COCN*)[C@@H](O)C2(F)F)c(=O)n1; Dolaproine = CO[C@@H]([C@@H]1CCCN1)[C@@H](C)C(=O)O; Hexanoyl(6-maleimido) = O=C1C=CC(=O)N1CCCCCC(=O)*; Dil = CC[C@H](C)[C@H](NC)[C@@H](CC(=O)O)OC; X4 = CCCCc1nc2c(N)nc3ccccc3c2n1CCCCN*; X7 = O=C(OC1[C@H]2CCC#CCC[C@@H]12)*; DBCO = C1#Cc2ccccc2N(*)Cc2ccccc21; NHCH2OCH2CO = O=C(COCN[*:1])[*:2]; X3 = C[C@@H](N*)[C@@H](O)c1ccccc1; X6 = O=C1C=C(Br)C(=O)N1CCC(=O)*; X2 = COCCOCCOCCOCCOCCOCC(=O)*; Suc = O=C(CCC(=O)[*:2])[*:1]; NMeV = CN[C@H](C(=O)O)C(C)C; PEG3 = NCCOCCOCCOCCC(=O)O; GABA = NCCCC(=O)O

How the values were obtained:
cathepsin L = cathepsin L (Homo sapiens, UniProt P07711); test: Enzymatic cleavage by cathepsin L, released DXD quantified by HPLC; format: biochemical; design: Enzymatic cleavage efficiency %: concentration or dose not given beside the values
Chain of cathepsin L (P07711 114-333): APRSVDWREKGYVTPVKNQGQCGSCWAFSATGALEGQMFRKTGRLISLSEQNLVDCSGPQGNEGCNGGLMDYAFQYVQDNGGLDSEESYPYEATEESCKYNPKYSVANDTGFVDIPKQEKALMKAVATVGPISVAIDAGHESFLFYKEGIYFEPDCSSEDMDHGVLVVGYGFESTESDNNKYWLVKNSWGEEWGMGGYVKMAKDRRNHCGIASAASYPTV

[1] = human
[2] = Stability in human plasma; settings: within 20 hours
Human Fibrosarcoma = system: Human Fibrosarcoma; design: species or system Nude mice; settings: mouse, in vivo

Compound | Enzymatic cleavage efficiency % (cathepsin L) | Substrate content % [2] | also measured
CC[C@@]1(O)C(=O)OCc2c1cc1n(c2=O)Cc2c-1nc1cc(F)c(C)c3c1c2[C@@H](NC(=O)COCNC(=O)[C@@H](N)CC(C)C)CC3 [L-AM-DXD, Leu-AM-DXd, reference compound] | – | – | DXD produced, share of the reaction substrate (enzymatic cleavage activation efficiency) (cathepsin L; pH 6): 1.45%
COc1cccc2c1C(=O)c1c(O)c3c(c(O)c1C2=O)C[C@@](O)(C(=O)CO)C[C@@H]3O[C@H]1C[C@H](NC(=O)[C@H](CC(C)C)NC(=O)[C@H](Cc2ccccc2)NC(=O)CNC(=O)CNC(=O)CCCCCN2C(=O)C=CC2=O)[C@H](O)[C@H](C)O1 [S1] ({Hexanoyl(6-maleimido)}-GGFL-{Doxorubicin(3'-N)}) | 90.5% | – | Generated load % [1]: 0.0%; Substrate content % [1]: 100%
CC[C@@]1(O)C(=O)OCc2c1cc1n(c2=O)Cc2c-1nc1cc(F)c(C)c3c1c2[C@@H](NC(=O)[C@H](CC(C)C)NC(=O)[C@H](Cc1ccccc1)NC(=O)CNC(=O)CNC(=O)CCCCCN1C(=O)C=CC1=O)CC3 [S2] ({Hexanoyl(6-maleimido)}-GGFL-Exatecan) | 91.1% | 100% | –
CCCCc1nc2c(N)nc3ccccc3c2n1CCCCNC(=O)[C@H](CC(C)C)NC(=O)[C@H](Cc1ccccc1)NC(=O)CNC(=O)CNC(=O)CCCCCN1C(=O)C=CC1=O [S3] ({Hexanoyl(6-maleimido)}-GGFL-X4) | – | 100% | Enzymatic cleavage efficiency % (cathepsin L; cathepsin L, within 20 h): 91.0%
CC[C@H](C)[C@@H]([C@@H](CC(=O)N1CCC[C@H]1[C@H](OC)[C@@H](C)C(=O)N[C@H](C)[C@@H](O)c1ccccc1)OC)N(C)C(=O)[C@@H](NC(=O)[C@H](C(C)C)N(C)C(=O)[C@H](CC(C)C)NC(=O)[C@H](Cc1ccccc1)NC(=O)CNC(=O)CNC(=O)CCCCCN1C(=O)C=CC1=O)C(C)C [S5] ({Hexanoyl(6-maleimido)}-GGFL[NMeV]V[Dil][Dolaproine]-X3) | 93.1% | – | –
CC[C@@]1(O)C(=O)OCc2c1cc1n(c2=O)Cc2c-1nc1cc(F)c(C)c3c1c2[C@@H](NC(=O)COCNC(=O)[C@H](CC(C)C)NC(=O)[C@H](Cc1ccccc1)NC(=O)CNC(=O)CNC(=O)CCCCCN1C(=O)C=CC1=O)CC3 [S6] ({Hexanoyl(6-maleimido)}-GGFL[NHCH2OCH2CO]-Exatecan) | 98.0% | 98.0% | Generated load % [2]: 2.0%
CC[C@@]1(O)C(=O)OCc2c1cc1n(c2=O)Cc2c-1nc1cc(F)c(C)c3c1c2[C@@H](NC(=O)COCNC(=O)[C@H](CC(C)C)NC(=O)[C@H](Cc1ccccc1)NC(=O)CNC(=O)CNC(=O)[C@H](CCCCNC(=O)COCCOCCOCCOCCOCCOC)NC(=O)CCCCCN1C(=O)C=CC1=O)CC3 [S8] ({Hexanoyl(6-maleimido)}-K(X2)GGFL[NHCH2OCH2CO]-Exatecan) | 98.0% | 98.0% | Anti-tumor rate% Day 20 (Human Fibrosarcoma): 98%; Tumor volume(mm^3) Day 20 (Human Fibrosarcoma): 15 mm^3; treatment efficacy compared with DXd (Human Fibrosarcoma): significantly improved treatment efficacy
CCc1c2c(nc3ccc(OCNC(=O)[C@H](CC(C)C)NC(=O)[C@H](Cc4ccccc4)NC(=O)CNC(=O)CNC(=O)CCCCCN4C(=O)C=CC4=O)cc13)-c1cc3c(c(=O)n1C2)COC(=O)[C@]3(O)CC [S14] ({Hexanoyl(6-maleimido)}-GGFL-X5) | 98.0% | 98.0% | –
CCc1c2c(nc3ccc(O)cc13)-c1cc3c(c(=O)n1C2)COC(=O)[C@@]3(CC)OCNC(=O)[C@H](CC(C)C)NC(=O)[C@H](Cc1ccccc1)NC(=O)CNC(=O)CNC(=O)CCCCCN1C(=O)C=CC1=O [S15] ({Hexanoyl(6-maleimido)}-GGFL-X8) | 95.1% | – | –
CC(C)C[C@H](NC(=O)[C@H](Cc1ccccc1)NC(=O)CNC(=O)CNC(=O)CCCCCN1C(=O)C=CC1=O)C(=O)NCOC[C@H]1O[C@@H](n2ccc(N)nc2=O)C(F)(F)[C@@H]1O [S16] ({Hexanoyl(6-maleimido)}-GGFL-X9) | 92.3% | – | –
CC[C@@]1(O)C(=O)OCc2c1cc1n(c2=O)Cc2c-1nc1cc(F)c(C)c3c1c2[C@@H](NC(=O)COCNC(=O)[C@H](CC(C)C)NC(=O)[C@H](Cc1ccccc1)NC(=O)CNC(=O)CNC(=O)CCCCCOC1O[C@H](CO)[C@H](O)[C@H](O)[C@H]1NC(C)=O)CC3 (stereo partly shown) [S18] (Ac-[X1]GGFL[NHCH2OCH2CO]-Exatecan) | 98.3% | 98.2% | Anti-tumor rate% Day 20 (Human Fibrosarcoma): 95%; Tumor volume(mm^3) Day 20 (Human Fibrosarcoma): 40 mm^3; treatment efficacy compared with DXd (Human Fibrosarcoma): significantly improved treatment efficacy
CC[C@@]1(O)C(=O)OCc2c1cc1n(c2=O)Cc2c-1nc1cc(F)c(C)c3c1c2[C@@H](NC(=O)[C@H](CC(C)C)NC(=O)[C@H](Cc1ccccc1)NC(=O)CNC(=O)CNC(=O)CCN1C(=O)C=C(Br)C1=O)CC3 [S26] (X6-GGFL-Exatecan) | 95.1% | 100% | –
CCCCc1nc2c(N)nc3ccccc3c2n1CCCCNC(=O)[C@H](CC(C)C)NC(=O)[C@H](Cc1ccccc1)NC(=O)CNC(=O)CNC(=O)CCOCCOCCOCCNC(=O)OC1[C@H]2CCC#CCC[C@@H]12 (stereo partly shown) [S27] | – | 100% | Enzymatic cleavage efficiency % (cathepsin L; cathepsin L, within 20 h): 94.5%
CC[C@@]1(O)C(=O)OCc2c1cc1n(c2=O)Cc2c-1nc1cc(F)c(C)c3c1c2[C@@H](NC(=O)CCCNC(=O)[C@H](CC(C)C)NC(=O)[C@H](Cc1ccccc1)NC(=O)CNC(=O)CNC(=O)CCOCCOCCOCCNC(=O)OC1[C@H]2CCC#CCC[C@@H]12)CC3 (stereo partly shown) [S28] ({X7-PEG3}-GGFL[GABA]-Exatecan) | 95.1% | 100% | –
CCCCc1nc2c(N)nc3ccccc3c2n1CCCCNC(=O)[C@H](CC(C)C)NC(=O)[C@H](Cc1ccccc1)NC(=O)CNC(=O)CNC(=O)CCOCCOCCOCCNC(=O)CCC(=O)N1Cc2ccccc2C#Cc2ccccc21 [S31] ({DBCO-Suc-PEG3}-GGFL-X4) | 97.5% | – | –
CC[C@@]1(O)C(=O)OCc2c1cc1n(c2=O)Cc2c-1nc1cc(F)c(C)c3c1c2[C@@H](NC(=O)CCCNC(=O)[C@H](CC(C)C)NC(=O)[C@H](Cc1ccccc1)NC(=O)CNC(=O)CNC(=O)CCOCCOCCOCCNC(=O)CCC(=O)N1Cc2ccccc2C#Cc2ccccc21)CC3 [S32] ({DBCO-Suc-PEG3}-GGFL[GABA]-Exatecan) | 98.0% | 100% | –
CC[C@@]1(O)C(=O)OCc2c1cc1n(c2=O)Cc2c-1nc1cc(F)c(C)c3c1c2[C@@H](NC(=O)COCNC(=O)[C@H](CC(C)C)NC(=O)[C@H](Cc1ccccc1)NC(=O)CNC(=O)CNC(=O)CCOCCOCCOCCNC(=O)CCC(=O)N1Cc2ccccc2C#Cc2ccccc21)CC3 [S34] ({DBCO-Suc-PEG3}-GGFL[NHCH2OCH2CO]-Exatecan) | 98.1% | 98.3% | –
